Test results taken from patent publication EP0753009B1, “MALARIA PEPTIDES” (Oxxon Pharmaccines Limited, priority 1994, dated 2001).
Marks after values point to notes of the source that are not given here. Residues, ends and D or L forms follow the SMILES beside them.

Tested on: HLA matched or autologous B cell line targets pre-pulsed with the peptide
Experiment: Standard CTL chromium release assay with restimulated lymphocytes from malaria-exposed Gambians (secondary CTL response)
Format: cell-based, humans
Settings: HLA-A2
Description: Peptides shown to bind to a particular HLA class I allele were tested for CTL recognition in assays using lymphocytes from malaria-exposed Gambians, as described previously^1. A minority of peptides, synthesized to correspond to a peptides binding motif were not tested in the relevant assembly assay but tested only for CTL recognition. Cells from 82 adult Gambians and 53 Gambian children, all exposed to malaria, were used in the course of these studies. The children and adults were HLA typed using cellular or molecular techniques as described previously^1. Peptides were incubated with cells either singly, or in pools as described^1 at concentrations of 10-100µM. Peptides could either be left with the cells for the duration of restimulation (as reported^1) or washed off after an hour. Cells were cultured for 1-3 weeks before a standard CTL chromium release assay^1 was performed using HLA matched or autologous B cell line targets pre-pulsed with the peptide to be tested. Peptides were tested either singly or in pools for CTL recognition.

Compound | epitope for a secondary cytotoxic T lymphocyte response (asterisk mark)
CC[C@H](C)[C@H](NC(=O)[C@@H](NC(=O)[C@H](CCCCN)NC(=O)[C@H](CC(C)C)NC(=O)[C@@H](N)Cc1ccc(O)cc1)[C@@H](C)O)C(=O)N[C@@H](CCC(N)=O)C(=O)N[C@@H](CC(N)=O)C(=O)N[C@@H](CO)C(=O)N[C@@H](CC(C)C)C(=O)O [cp36] (H-YLKTIQNSL-OH) | cp36 *
CC[C@H](C)[C@H](NC(=O)[C@H](CCCCN)NC(=O)[C@H](CCC(N)=O)NC(=O)[C@H](CC(C)C)NC(=O)[C@@H](N)Cc1ccc(O)cc1)C(=O)N[C@@H](CCC(N)=O)C(=O)N[C@@H](CC(N)=O)C(=O)N[C@@H](CO)C(=O)N[C@@H](CC(C)C)C(=O)O [cp37] (H-YLQKIQNSL-OH) | cp37 *
CC(C)C[C@H](NC(=O)[C@H](Cc1ccc(O)cc1)NC(=O)[C@H](CCCCN)NC(=O)[C@@H](NC(=O)[C@H](CC(N)=O)NC(=O)CNC(=O)[C@H](CC(C)C)NC(=O)[C@@H](N)Cc1c[nH]cn1)C(C)C)C(=O)N[C@H](C(=O)O)C(C)C [tr26] (H-HLGNVKYLV-OH) | tr26 *
CC[C@H](C)[C@H](NC(=O)CN)C(=O)N[C@@H](C)C(=O)NCC(=O)NCC(=O)N[C@@H](CC(C)C)C(=O)N[C@@H](C)C(=O)N[C@@H](CC(C)C)C(=O)N[C@@H](CC(C)C)C(=O)O [tr39] (H-GIAGGLALL-OH) | tr39 *
CC[C@H](C)[C@H](NC(=O)[C@H](CCCCN)NC(=O)[C@H](CCC(N)=O)NC(=O)[C@H](CC(C)C)NC(=O)[C@@H](N)Cc1ccc(O)cc1)C(=O)N[C@@H](CCCCN)C(=O)N[C@@H](CC(N)=O)C(=O)N[C@@H](CO)C(=O)N[C@@H](CC(C)C)C(=O)O [cp38] (H-YLQKIKNSL-OH) | cp38 *
